Experimental data as given in ChEMBL document CHEMBL1201862, “PubChem BioAssay data set” (2004).
Calls of active or inactive are those of the source.

What was measured:
[1] = inhibitors of clade B AD8 Env fusion, dose response, cell-based, cherry-pick (AID 652062); assay type: functional;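 note: luciferase signal from cell-cell fusion driven by HIV-1 clade B AD8 Env; potency is for inhibitors of fusion seen as a drop in luminescence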
[2] = inhibitors of HIV Env-driven cell fusion, dose response, cherry-pick (AID 652057); assay type: functional, cell-based
[3] = biological target: Endoplasmic reticulum aminopeptidase 1 (Homo sapiens, UniProt Q9NZ08); experiment: ERAP1 aminopeptidase inhibitors, dose response, biochemical, cherry-pick, set 2, plate reader (AID 743314)
Chain of Endoplasmic reticulum aminopeptidase 1 (Q9NZ08 whole entry): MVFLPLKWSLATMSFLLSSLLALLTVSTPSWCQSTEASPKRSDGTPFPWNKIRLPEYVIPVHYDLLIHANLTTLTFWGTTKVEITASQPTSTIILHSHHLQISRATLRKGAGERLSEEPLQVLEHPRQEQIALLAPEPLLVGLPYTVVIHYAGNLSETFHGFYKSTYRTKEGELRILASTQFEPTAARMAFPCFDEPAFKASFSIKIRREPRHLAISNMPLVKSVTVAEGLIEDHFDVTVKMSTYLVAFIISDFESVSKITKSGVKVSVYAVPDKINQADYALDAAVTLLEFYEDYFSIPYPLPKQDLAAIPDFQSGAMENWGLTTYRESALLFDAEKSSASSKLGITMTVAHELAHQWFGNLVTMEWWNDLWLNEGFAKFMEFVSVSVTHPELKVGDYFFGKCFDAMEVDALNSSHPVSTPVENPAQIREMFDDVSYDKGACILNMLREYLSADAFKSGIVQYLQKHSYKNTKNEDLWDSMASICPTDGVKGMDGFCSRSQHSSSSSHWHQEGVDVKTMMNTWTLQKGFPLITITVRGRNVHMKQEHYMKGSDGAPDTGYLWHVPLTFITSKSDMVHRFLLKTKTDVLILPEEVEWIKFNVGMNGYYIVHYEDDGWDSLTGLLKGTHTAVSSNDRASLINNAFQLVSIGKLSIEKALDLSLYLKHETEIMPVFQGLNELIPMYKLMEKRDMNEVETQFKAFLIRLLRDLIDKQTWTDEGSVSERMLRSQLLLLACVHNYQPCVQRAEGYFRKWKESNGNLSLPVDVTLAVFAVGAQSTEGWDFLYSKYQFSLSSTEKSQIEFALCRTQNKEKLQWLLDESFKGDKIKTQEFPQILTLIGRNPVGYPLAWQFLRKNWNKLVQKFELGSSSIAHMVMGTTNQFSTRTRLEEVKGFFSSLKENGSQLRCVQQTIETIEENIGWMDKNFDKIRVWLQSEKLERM

[4] = cytotoxicity toward NIH3T3 fibroblasts, dose response, counter-screen, cell-based, ATP luminescence, mouse fibroblasts (AID 2010); assay type: functional;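 note: cells exposed to compound for about 90 hours before reading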
[5] = biological target: Disintegrin and metalloproteinase domain-containing protein 17 (Homo sapiens, UniProt P78536); experiment: ADAM17 protease inhibitors, dose response, counter-screen for ADAM10 exosite inhibitor project, biochemical, quenched FRET substrate (AID 743253)
Chain of Disintegrin and metalloproteinase domain-containing protein 17 (P78536 whole entry, the tested form may be a part): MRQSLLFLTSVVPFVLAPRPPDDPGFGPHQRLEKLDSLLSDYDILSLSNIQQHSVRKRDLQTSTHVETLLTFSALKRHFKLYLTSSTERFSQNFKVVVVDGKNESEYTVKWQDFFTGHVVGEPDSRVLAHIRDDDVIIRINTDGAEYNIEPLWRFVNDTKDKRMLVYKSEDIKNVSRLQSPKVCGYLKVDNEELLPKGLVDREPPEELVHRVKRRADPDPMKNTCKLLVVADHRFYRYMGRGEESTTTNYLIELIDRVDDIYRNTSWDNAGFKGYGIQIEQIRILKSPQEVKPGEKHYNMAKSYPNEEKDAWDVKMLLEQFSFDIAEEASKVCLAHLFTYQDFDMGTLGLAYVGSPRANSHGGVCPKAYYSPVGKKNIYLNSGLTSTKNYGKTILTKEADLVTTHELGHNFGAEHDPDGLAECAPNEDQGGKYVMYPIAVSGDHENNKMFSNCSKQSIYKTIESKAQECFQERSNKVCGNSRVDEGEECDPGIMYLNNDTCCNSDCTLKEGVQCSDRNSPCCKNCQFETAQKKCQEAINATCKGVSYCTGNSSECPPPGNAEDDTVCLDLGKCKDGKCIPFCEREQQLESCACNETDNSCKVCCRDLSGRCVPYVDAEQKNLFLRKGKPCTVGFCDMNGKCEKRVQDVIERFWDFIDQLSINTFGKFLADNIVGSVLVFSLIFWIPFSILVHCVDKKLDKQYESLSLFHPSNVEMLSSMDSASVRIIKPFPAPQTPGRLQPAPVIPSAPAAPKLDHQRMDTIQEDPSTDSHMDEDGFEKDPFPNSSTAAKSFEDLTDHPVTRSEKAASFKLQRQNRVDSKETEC

[6] = Luminescence Cell-Based Dose Retest to Confirm Inhibitors of Cancer Stem Cells. [Related pubchem assays (depositor defined):AID2717, AID2721]; assay type: functional; conditions: Homo sapiens
[7] = inhibitors of intracellular T. cruzi replication, confirmation, NIH3T3 host cells, beta-gal luminescence (AID 2044); assay type: functional, cell-based;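 note: intracellular parasites grown in NIH/3T3 mouse fibroblasts as host cells; luminescent beta-galactosidase reporter signal from transgenic T. cruzi replicating inside host cells; inhibitors lower the luminescence signal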
Streptokinase A = biological target: T1, Streptokinase A (Streptococcus pyogenes serotype M1, UniProt P10520); experiment: S. pyogenes streptokinase expression inhibitors, potency, dose response, plasminogen activation absorbance, OD405 (AID 1914); assay type: functional, Streptococcus pyogenes M1 GAS;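 note: secreted streptokinase activity via plasminogen activation per viability signal from cell pellet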
T1 sequence (P10520 whole entry): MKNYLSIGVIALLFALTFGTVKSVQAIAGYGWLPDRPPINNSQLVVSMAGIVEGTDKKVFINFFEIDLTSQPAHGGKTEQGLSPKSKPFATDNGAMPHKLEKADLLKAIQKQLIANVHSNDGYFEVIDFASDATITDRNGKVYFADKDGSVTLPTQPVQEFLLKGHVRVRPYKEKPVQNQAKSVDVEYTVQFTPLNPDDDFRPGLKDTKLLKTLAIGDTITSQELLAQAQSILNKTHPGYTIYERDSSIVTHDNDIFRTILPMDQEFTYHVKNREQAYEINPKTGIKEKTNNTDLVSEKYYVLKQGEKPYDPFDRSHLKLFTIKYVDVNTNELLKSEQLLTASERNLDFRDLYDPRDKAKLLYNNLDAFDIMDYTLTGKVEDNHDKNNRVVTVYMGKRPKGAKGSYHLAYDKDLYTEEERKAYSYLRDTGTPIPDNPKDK

Streptococcus = experiment: Group A Streptococcus viability loss, dose response, counter-screen for streptokinase expression inhibitor project, luminescence, BacTiterGlo (AID 1915); assay type: functional, organism-based;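 note: potency for reduction of bacterial viability or growth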
[8] = tested on: Streptococcus sp. 'group A'; experiment: growth inhibition of control SK(-) GAS strain, dose response, counter-screen for streptokinase expression inhibitor project, luminescence, kanamycin, BacTiterGlo, confirmation (AID 1900); assay type: functional, organism-based
Cysteine protease ATG4B = biological target: T2, Cysteine protease ATG4B (Homo sapiens, UniProt Q9Y4P1); assay type: functional;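 note: Fluorescence-based dose-response confirmation assay measuring inhibition of ATG4B activity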
T2 sequence (Q9Y4P1 whole entry): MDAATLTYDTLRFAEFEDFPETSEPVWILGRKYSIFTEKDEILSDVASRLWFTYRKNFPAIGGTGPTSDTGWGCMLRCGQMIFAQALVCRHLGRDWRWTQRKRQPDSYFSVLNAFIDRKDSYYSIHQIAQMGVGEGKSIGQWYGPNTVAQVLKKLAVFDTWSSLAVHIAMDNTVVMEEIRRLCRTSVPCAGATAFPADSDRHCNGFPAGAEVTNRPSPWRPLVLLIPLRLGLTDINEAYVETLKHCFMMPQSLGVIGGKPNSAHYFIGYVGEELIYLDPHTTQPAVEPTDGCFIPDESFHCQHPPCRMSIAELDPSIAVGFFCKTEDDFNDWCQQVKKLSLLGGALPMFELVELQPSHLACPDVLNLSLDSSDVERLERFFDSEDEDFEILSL

[9] = biological target: T3, Long-chain-fatty-acid--AMP ligase FadD28 (Mycobacterium tuberculosis, UniProt P9WQ59); experiment: Fluorescence polarization aasay to screen for inhibitors that compete for the binding of FadD28 to a bisubstrate Measured in Biochemical System Using Plate Reader - 2147-01_Inhibitor_Dose_CherryPick_Activity.; assay type: functional, Mycobacterium tuberculosis H37Rv
T3 sequence (P9WQ59 whole entry): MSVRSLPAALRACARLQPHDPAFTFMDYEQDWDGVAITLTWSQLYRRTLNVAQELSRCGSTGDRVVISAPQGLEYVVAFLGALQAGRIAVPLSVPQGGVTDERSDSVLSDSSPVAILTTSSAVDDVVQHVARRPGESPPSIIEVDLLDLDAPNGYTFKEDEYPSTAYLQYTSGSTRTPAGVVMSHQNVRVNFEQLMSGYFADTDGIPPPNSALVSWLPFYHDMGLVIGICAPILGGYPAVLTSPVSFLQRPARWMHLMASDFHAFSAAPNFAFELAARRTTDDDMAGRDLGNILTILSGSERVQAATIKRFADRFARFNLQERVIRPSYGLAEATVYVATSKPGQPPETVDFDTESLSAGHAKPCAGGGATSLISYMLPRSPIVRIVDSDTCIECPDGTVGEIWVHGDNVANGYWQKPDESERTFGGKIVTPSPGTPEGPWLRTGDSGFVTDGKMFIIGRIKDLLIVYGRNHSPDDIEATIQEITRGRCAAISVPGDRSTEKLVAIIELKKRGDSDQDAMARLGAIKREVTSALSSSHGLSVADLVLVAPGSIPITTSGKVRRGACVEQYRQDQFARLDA

Phospholipase A2 = Phospholipase A2 (Homo sapiens, UniProt P04054); assay type: functional;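 note: confirmatory dose-response counterscreen on phospholipase A2, testing hits that came from an ultra-high-throughput screen for ATG4B inhibitors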
Chain of Phospholipase A2 (P04054 whole entry): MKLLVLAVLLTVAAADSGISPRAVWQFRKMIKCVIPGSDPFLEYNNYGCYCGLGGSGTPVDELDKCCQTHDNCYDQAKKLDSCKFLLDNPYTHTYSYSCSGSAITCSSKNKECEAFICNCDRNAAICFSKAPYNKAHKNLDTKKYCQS

[10] = intracellular Trypanosoma cruzi inhibitors in host cells – cell-based, plate reader, cherry-pick samples, set 3, dose response (AID 651818); assay type: functional;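 note: compounds incubated with infected cells for about four days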
[11] = Vero cell cytotoxicity, dose response, cytotoxicity control for Vif-APOBEC3G degradation inhibitor project, Vero cells (AID 1117358); assay type: functional; conditions: Human immunodeficiency virus 1, Vero
[12] = off-target signal loss in HeLa-CEM21 co-culture – HeLa F-luc CTL cells, cherry-picked, counter-screen for HIV-1 Env fusion inhibitor project, dose response (AID 652040); assay type: functional, cell-based;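 note: potency for signal decrease marking cytotoxic or nonspecific inhibition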
[13] = Fluorescence-based cell-based high throughput dose response assay for inhibitors of the interaction of nucleotide-binding oligomerization domain containing 2 (NOD2) and the receptor-interacting serine-threonine kinase 2 (RIPK2).; assay type: functional; conditions: Homo sapiens
cells = assay type: functional
[14] = biological target: T4, Mannose-6-phosphate isomerase (Homo sapiens, UniProt P34949); experiment: human PMI inhibitors, high substrate, primary screen, biochemical, fluorescence intensity, high mannose 6-phosphate (AID 1220)
T4 sequence (P34949 whole entry): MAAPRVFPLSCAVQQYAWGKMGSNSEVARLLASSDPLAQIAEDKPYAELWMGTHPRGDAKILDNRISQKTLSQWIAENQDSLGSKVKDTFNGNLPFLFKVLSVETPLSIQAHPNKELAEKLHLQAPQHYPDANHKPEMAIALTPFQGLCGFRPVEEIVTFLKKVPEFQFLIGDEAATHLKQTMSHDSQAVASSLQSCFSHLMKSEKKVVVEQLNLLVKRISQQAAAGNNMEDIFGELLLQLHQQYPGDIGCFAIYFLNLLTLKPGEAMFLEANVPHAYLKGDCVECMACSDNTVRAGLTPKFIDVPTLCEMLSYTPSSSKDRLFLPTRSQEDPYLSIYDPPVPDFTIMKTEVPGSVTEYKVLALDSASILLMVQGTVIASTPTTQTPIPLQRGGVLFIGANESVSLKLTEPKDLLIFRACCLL

[15] = growth suppression of beta-catenin-knockout colon cells, dose response, cell-based, HCT116, human colon tumor (AID 1045); assay type: functional;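 note: HCT116 colon tumor cells with beta catenin knocked out; cells exposed to compound for 60 hours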
[16] = biological target: T5, Heat shock factor protein 1 (Mus musculus, UniProt P38532); experiment: HSF1 potentiators in luciferase reporter cells, confirmation, cell-based, NIH3T3, luminescence, dose retest (AID 435004); assay type: functional;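 note: stress induced by proteasome inhibitor MG132 added 30 min after compound; luciferase reporter driven by HSF1 response element in NIH3T3 cells; actives raise luminescence as potentiators of the MG132 stress response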
T5 sequence (P38532 whole entry): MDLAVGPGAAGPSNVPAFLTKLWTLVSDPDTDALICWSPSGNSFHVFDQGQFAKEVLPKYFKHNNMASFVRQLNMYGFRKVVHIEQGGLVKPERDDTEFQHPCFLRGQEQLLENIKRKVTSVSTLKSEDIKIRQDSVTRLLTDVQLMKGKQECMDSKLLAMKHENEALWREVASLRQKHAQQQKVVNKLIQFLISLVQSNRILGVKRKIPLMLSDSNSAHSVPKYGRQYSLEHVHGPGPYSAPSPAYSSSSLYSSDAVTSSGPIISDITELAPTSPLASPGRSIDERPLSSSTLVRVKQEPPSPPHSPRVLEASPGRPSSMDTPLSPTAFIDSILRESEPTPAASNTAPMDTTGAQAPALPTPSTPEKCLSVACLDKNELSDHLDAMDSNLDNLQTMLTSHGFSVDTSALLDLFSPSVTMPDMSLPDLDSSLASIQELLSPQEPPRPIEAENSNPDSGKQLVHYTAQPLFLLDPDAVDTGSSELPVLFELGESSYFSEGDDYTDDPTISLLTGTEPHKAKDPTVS

[17] = growth suppression of PTEN-null colon cells, dose response, cell-based, HCT116 PTEN knockout (AID 1047); assay type: functional;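 note: HCT116 colon tumor cells with PTEN knocked out; cells exposed to compound for 60 hours before readout; potency for loss of cell viability measured by luminescence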
[18] = inhibitors of Vif binding to APOBEC3G peptide, primary screen, biochemical, TR-FRET, GST-Vif 1-94, biotin-A3G peptide, dose response retest (AID 1117319); assay type: functional;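 note: TR-FRET signal of purified GST-Vif binding a biotinylated A3G peptide; inhibitors lower the FRET signal by blocking Vif and A3G binding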
Leucine aminopeptidase = biological target: T6, Leucine aminopeptidase (Plasmodium falciparum 3D7, UniProt Q8IL11); experiment: P. falciparum M17LAP inhibitors, primary screen, biochemical, fluorogenic H-Leu-NHMec substrate, 1536-well (AID 1619); assay type: functional
T6 sequence (Q8IL11 whole entry): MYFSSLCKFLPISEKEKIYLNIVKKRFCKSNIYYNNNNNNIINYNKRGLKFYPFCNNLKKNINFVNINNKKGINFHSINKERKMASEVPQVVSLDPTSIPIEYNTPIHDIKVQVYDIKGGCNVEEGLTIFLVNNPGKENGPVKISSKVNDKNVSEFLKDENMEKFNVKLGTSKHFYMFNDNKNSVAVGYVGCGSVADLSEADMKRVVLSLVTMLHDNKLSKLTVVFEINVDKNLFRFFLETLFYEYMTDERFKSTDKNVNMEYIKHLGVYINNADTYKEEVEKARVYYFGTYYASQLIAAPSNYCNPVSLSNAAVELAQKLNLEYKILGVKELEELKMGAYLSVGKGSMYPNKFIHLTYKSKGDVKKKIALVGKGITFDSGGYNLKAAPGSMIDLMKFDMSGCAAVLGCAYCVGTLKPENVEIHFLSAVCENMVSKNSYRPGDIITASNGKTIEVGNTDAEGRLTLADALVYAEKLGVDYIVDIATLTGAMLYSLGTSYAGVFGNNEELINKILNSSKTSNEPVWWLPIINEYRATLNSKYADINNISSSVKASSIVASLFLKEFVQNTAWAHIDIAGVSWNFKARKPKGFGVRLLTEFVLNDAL

Cc1noc(C)c1S(=O)(=O)N(C)C[C@@H]1Oc2ccc(NC(=O)Cc3ccccc3)cc2CC(=O)N([C@H](C)CO)C[C@@H]1C
AC50 [1]: 2.92 µM (active) | AC50 [2]: < 0.26 µM (active)

CCN1[C@@H]2c3ccc(/C=C/c4ccccc4)c(=O)n3C[C@H]1[C@H](CO)[C@H]2C(=O)N1CCOCC1
AC50 [3]: 6.11 µM (active)

O=[N+]([O-])c1ccc(S(=O)(=O)Nc2ccc(-c3csc(-c4ccccc4)n3)cc2)cc1
EC50 [4]: > 60 µM (not active) | IC50 [5]: > 69.5 µM (inactive) | AC50 [6]: 2.33 µM (active) | EC50 [7]: 0.118 µM (active) | EC50 (Streptokinase A): > 150 µM (not active) | EC50 (Streptococcus): 8.29 µM (active) | EC50 [8]: 3.77 µM (active)

O=C([C@@H]1[C@@H](CO)[C@@H]2Cn3c(ccc(/C=C/c4ccccc4)c3=O)[C@@H]2N1CC1CC1)N1CCOCC1
AC50 [3]: 13.7 µM (active)

O=C(O)c1cc(Br)ccc1NN=C1CCCCC1
IC50 (Cysteine protease ATG4B): 13.4 µM (active) | AC50 [9]: > 100 µM (inactive) | IC50 (Phospholipase A2): 9.4 µM (active)

C[C@@H]1CN([C@H](C)CO)C(=O)c2cccc(NC(=O)c3cnccn3)c2O[C@@H]1CN(C)Cc1ccc(C(=O)Nc2ccccc2N)cc1
AC50 [10]: 3.06 µM (active)

CN1[C@H](C(=O)NC2CCC2)[C@@H](CO)[C@@H]2Cn3c(ccc(/C=C/c4ccccc4)c3=O)[C@@H]21
AC50 [3]: 18 µM (active)

N#Cc1cn(CCOc2ccccc2F)c2ccccc12
CC50 [11]: > 40 µM (active)

O=C1c2cccc(OCc3ccc(F)cc3)c2CCN1Cc1ccccc1
AC50 [1]: 10.1 µM (active) | AC50 [12]: 4.11 µM (active)

CCC(=O)Nc1ccc(C(=O)Cn2ncc(Cl)c(Cl)c2=O)cc1
AC50 [6]: 5.04 µM (active) | IC50 [13]: 6.53 µM (active)

C[C@H]1CN([C@@H](C)CO)C(=O)Cc2cc(NS(=O)(=O)c3ccc(Cl)cc3)ccc2O[C@H]1CN(C)CC1CCCCC1
AC50 [10]: 5.05 µM (active)

COC(=O)c1cnn2c(C)c(Cc3cccc(F)c3)c(C)nc12
CC50 [11]: > 40 µM (active)

Cc1ccc(CN(C(=O)Cn2nnc3ccccc32)C(C(=O)NCc2ccco2)c2cccs2)cc1 (stereo not drawn)
CC50 [11]: > 40 µM (active)

C[C@@H]1CCCCO[C@@H](CN(C)Cc2ccc(C(=O)Nc3ccccc3N)cc2)[C@@H](C)CN([C@H](C)CO)C(=O)c2cc(NC(=O)Nc3ccc(C(F)(F)F)cc3)ccc2O1
AC50 [10]: 0.554 µM (active)

Oc1ccc(F)c2cccnc12
IC50 (cells): 4.21 µM (active) | IC50 [14]: 7.42 µM (active)

Cc1cc(SC#N)cc(C)c1NC(=O)CCl
EC50 [15]: 17.4 µM (active) | EC50 [16]: 5.97 µM (active) | EC50 [17]: 19.8 µM (active) | IC50 [13]: 11.1 µM (inactive)

CCOC(=O)N1CCC(N2C(=O)c3ccccc3C2Nc2ccccc2)CC1 (stereo not drawn)
IC50 [18]: > 100 µM (active)

O=C(c1ccc(S(=O)(=O)N2CCOCC2)cc1)N1CCN(c2cccc(Cl)c2)CC1
IC50 [18]: > 100 µM (active)

O=C(NCc1ccccc1)[C@@H]1[C@@H](CO)[C@@H]2Cn3c(ccc(/C=C/c4ccccc4)c3=O)[C@H]1N2CC1CC1
AC50 [3]: 11.1 µM (active)

C[C@@H]1CN([C@@H](C)CO)C(=O)Cc2cc(NC(=O)Nc3ccc(C(F)(F)F)cc3)ccc2O[C@@H]1CN(C)S(=O)(=O)c1cccs1
AC50 [10]: 3.54 µM (active)

CC(C)c1ccc(C(=O)CSc2nc[nH]n2)cc1
IC50 (Leucine aminopeptidase): 33 µM (active) | IC50 [14]: 9.69 µM (active)

COc1ccc(CCN2C(=O)c3cccnc3C2=O)cc1OC
IC50 [18]: > 100 µM (active)
